Consider 19 molecules from patent EP4653444A1, “FUSED TRICYCLIC COMPOUND AS KINASE INHIBITOR” (Hangzhou Innogate Pharma Co., Ltd., priority 2023, dated 2024).

The nature of series [1]: Pharmacokinetic study in rats. The following applies: rat, plasma, po, 3 mg/kg.
The target in series [2] is T1, FAK kinase (Homo sapiens, UniProt Q05397). The series is described as follows: FAK kinase activity inhibition assay, method A (HTRF). The series is classed as biochemical. The following applies: Table 2; HTRF; ATP 10 µM; read-out: FAK (method A) (IC50). The protocol: (§1) The HTRF method was used to evaluate the inhibitory activity of the compounds against FAK kinase. […]. The reaction conditions were: FAK kinase at 0.1 ng/µL; ATP 10 µM; substrate concentration 1 µM. Compounds were serially diluted in DMSO and shaken on a shaker for 20 minutes. Prepare 2× kinase using 1× reaction buffer. Transfer 25 nL compound to a 384-well plate using Echo 655. Add 2.5 µL kinase per well. Seal the plate with sealing film, centrifuge at 1000 rpm for 60 seconds, and incubate at 25°C for 12 hours. Prepare 2× ATP/substrate mix using 1× enzyme reaction buffer and add 2.5 µL 2× ATP/substrate mix per well. Seal the plate with sealing film, centrifuge at 1000 rpm for 60 seconds, and incubate at 25°C for 50 minutes. Prepare 2×XL665 & antibody solution using HTRF detection buffer, and add 5 µL per well. Incubate at 25°C for 60 minutes. Read fluorescence at 620 nm (Cryptate) and 665 nm (XL665). Calculate the ratio per well (Ratio_665/620 nm). % Inhibition = 100% - [(Compound Ratio - Positive Control Ratio)/ (Negative Control Ratio - Positive Control Ratio)] × 100%. IC50 values (half-maximal inhibitory concentration) were calculated by nonlinear regression using GraphPad Prism 7.0. Y = Bottom + (Top - Bottom)/ (1 + 10^ ((LogIC50 - X) × Hill Slope)), where X is the log of compound concentration and Y is the % inhibition.
(In general: Time-resolved FRET reads energy transfer from a long-lived donor to a nearby acceptor.)

Series [3] deals with T1, FAK kinase. As to the kind of experiment: FAK kinase activity inhibition assay, method A (HTRF) and method B (Lantha screen). The series is classed as biochemical. As to the method:
as §1
The Lantha screen assay was used to evaluate the FAK kinase inhibitory activity. Compounds were dissolved in 100% DMSO at 10 mM stock concentration. Prepare 1× kinase buffer (25 mM HEPES, pH 7.5, 0.01 mM Triton, 0.5 mM EGTA, 0.01% Brij-35). Dilute compounds in a gradient, and transfer 5 µL compound into the reaction plate. Prepare 2× kinase solution with 1× Kinase buffer. Add 5 µL kinase solution to compound and positive control wells, and 5 µL 1× Kinase buffer to negative control wells. Mix reaction plate by shaking. Prepare 4× ATP/Fluorescein-polyGT substrate mix with 1× Kinase buffer. Add 2.5 µL substrate solution to initiate the reaction. Shake and incubate at room temperature for 30 minutes. Prepare 2× detection reagent (2 nM antibody, 10 mM EDTA) and add 10 µL per well to stop the reaction. Briefly centrifuge, mix, and incubate for 60 minutes. Read fluorescence at 340 nm excitation and 520 nm/495 nm emission using EnVision. Collect data and calculate 520 nm/495 nm ratio. Calculate the inhibition percentage using the formula: % Inhibition = (Max - Sample Ratio)/(Max - Min) × 100, where min is the mean of negative control wells (no enzyme activity), and max is the mean of positive control wells (DMSO-inhibited conversion rate).Use XLFit Excel add-in version 5.4.0.8 to determine the IC50 values of each compound against the enzyme activity: Y = Bottom + (Top - Bottom)/(1 + (IC50/X)^HillSlope).

Another series deals with T2, TNK1 kinase (Homo sapiens, UniProt Q13470).
T2 sequence (Q13470 1-666): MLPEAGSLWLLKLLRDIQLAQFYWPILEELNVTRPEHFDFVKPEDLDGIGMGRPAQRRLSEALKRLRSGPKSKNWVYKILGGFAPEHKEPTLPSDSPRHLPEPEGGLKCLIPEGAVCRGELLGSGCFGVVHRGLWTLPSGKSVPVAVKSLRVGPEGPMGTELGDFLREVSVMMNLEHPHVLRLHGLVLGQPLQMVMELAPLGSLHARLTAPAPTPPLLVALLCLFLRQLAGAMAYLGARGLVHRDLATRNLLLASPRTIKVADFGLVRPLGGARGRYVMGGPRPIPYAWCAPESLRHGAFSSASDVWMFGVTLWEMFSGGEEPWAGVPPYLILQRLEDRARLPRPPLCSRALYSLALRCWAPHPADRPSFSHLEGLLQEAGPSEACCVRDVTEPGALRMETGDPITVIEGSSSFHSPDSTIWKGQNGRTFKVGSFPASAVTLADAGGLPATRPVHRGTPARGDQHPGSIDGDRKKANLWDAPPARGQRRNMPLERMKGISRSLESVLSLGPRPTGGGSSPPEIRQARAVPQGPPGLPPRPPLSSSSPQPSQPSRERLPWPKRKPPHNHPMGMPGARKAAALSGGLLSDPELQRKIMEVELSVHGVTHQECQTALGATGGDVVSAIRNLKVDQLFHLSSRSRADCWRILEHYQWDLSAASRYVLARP
As to the kind of experiment: TNK1 kinase activity inhibition assay (ADP-Glo). It is filed as biochemical. As to the method:
Measure compound inhibitory activity against TNK1 kinase using ADP-Glo Assay. 1× kinase reaction buffer was prepared (working concentrations: HEPES 50 mM, MgCl2 10 mM, Brij35 0.01%, EGTA 1 mM, DTT 2 mM). 2× kinase and 4× substrate buffers were prepared with the following working concentrations: For TNK1 kinase: kinase solution at 5 nM; substrate mixture containing ATP at 45 µM and MBP substrate at 0.1 mg/ mL. For ULK2 kinase: kinase solution at 0.15 nM; substrate mixture containing ATP at 6 µM and MBP substrate at 0.1 mg/mL. Compounds were serially diluted in DMSO and shaken on an orbital shaker for 20 minutes. 2× kinase solution was prepared using 1× kinase reaction buffer. 20 nL of compound solution was transferred to a 384-well plate. 2 µL of kinase solution was added to each well of the reaction plate. The plate was sealed with adhesive film, centrifuged at 1000 rpm for 60 seconds, and incubated at 25°C for 10 minutes. 2× ATP&MBP mixture was prepared using 1× kinase reaction buffer. 2 µL of 2× ATP&substrate mixture was added to the reaction plate. The plate was sealed with adhesive film, centrifuged at 1000 rpm for 60 seconds, and incubated at 25°C for 60 minutes. 4 µL of ADP-Glo reagent was transferred to the 384-well reaction plate, centrifuged at 1000 rpm for 1 minute, and incubated at 25°C for 40 minutes. 8 µL of Detection solution was transferred to the 384-well reaction plate, centrifuged at 1000 rpm for 1 minute, and incubated at 25°C for 40 minutes. Relative luminescence units (RLU) were measured using a BMG microplate reader, with signal intensity representing kinase activity level. The inhibition percentage was calculated as follows: % inhibition = 100% - [(Compound RLU - Positive Control RLU)/(Negative Control RLU - Positive Control RLU)] × 100%. The IC50 values (half-maximal inhibitory concentration) of compounds were determined by fitting the data to the following nonlinear regression equation using GraphPad Prism 7.0 software: Y = Bottom + (Top - Bottom)/(1 + 10^((LogIC50 - X) × Hill Slope)), where: X = log(compound concentration), Y = % inhibition. Table1: Inhibitory activity of compounds against ULK (IC50, nM)
(In general: ADP-Glo turns the ADP formed in a reaction into a luminescent signal.)

Where [4] appears, read: Table 4, read-out: FAK(method A and method B) (IC50).

pIC50: −log10 of the molar value. Read-outs that look alike come from different tables or passages of the source.

T1 sequence (Q05397 whole entry): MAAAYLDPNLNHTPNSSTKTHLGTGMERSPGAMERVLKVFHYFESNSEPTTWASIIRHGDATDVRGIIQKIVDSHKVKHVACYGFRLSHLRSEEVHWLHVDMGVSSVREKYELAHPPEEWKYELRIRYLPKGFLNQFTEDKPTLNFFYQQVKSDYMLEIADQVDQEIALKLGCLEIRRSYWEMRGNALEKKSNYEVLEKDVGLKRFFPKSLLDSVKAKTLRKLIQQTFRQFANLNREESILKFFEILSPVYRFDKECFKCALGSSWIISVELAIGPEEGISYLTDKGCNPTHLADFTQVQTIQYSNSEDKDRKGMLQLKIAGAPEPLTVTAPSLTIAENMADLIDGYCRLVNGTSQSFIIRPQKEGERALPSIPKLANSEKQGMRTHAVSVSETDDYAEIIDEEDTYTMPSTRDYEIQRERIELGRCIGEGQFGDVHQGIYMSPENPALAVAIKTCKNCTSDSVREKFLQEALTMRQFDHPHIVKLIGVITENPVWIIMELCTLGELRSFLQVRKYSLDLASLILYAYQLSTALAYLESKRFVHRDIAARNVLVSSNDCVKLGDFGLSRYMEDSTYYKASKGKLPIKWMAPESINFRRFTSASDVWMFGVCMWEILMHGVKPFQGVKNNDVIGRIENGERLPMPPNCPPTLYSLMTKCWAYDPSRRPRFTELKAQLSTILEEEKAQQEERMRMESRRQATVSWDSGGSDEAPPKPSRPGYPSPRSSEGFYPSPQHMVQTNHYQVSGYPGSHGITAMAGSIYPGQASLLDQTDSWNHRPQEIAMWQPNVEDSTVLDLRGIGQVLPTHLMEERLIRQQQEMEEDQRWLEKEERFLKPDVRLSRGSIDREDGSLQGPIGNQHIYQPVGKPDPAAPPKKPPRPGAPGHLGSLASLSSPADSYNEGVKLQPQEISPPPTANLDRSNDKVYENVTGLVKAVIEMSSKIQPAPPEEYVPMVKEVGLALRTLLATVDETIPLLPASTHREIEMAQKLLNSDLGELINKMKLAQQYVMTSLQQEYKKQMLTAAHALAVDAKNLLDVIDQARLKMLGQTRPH

The AUC(0-t) is the area under the concentration-time curve up to a stated or last time point. Read a high AUC(0-t) as more exposure. The term Cmax denotes the highest concentration seen after dosing. Broadly, the Tmax is the time from dosing to the highest level. Usually half-life stands for the time needed for the level to fall by half in the phase considered. A low value points to fast loss. With `CCc1cc2c(cc1Nc1ncc(C(F)(F)F)c(NCCCN3CCOCCC3=O)n1)OC[C@@H]1CN(C3CCN(C)CC3)CCN21` [Compound A2S], in series [1], the area under the curve AUC(0-t) at 24 h worked out at 98 ng·h/mL, the highest level (Cmax) was 11.8 ng/mL, the Tmax stood at 1.17 h and the half-life was 7.05 h.
As a reminder, the pIC50 is the IC50 on a negative log10 scale, so that one unit is a factor of ten. With `COc1cc2c(cc1Nc1ncc(C(F)(F)F)c(CCc3ccccc3CC(N)=O)n1)OC[C@H]1CN(C)CCN21` [Compound B1R], the negative logarithm of the IC50 (pIC50) on FAK kinase [2] is greater than 9.30. In series [1], the AUC(0-t) at 24 h turned out to be 2330 ng·h/mL, the Cmax was determined as 387 ng/mL, the Tmax stood at 2.7 h and the half-life was 2.9 h.
Regarding `COc1cc2c(cc1Nc1ncc(C(F)(F)F)c(CCc3ccccc3CC(N)=O)n1)OC[C@H]1CN(C3CCNCC3)CCN21` [Compound B10R], the negative-log IC50 (pIC50) at FAK kinase [2] was greater than 9.30.
With `CC(C)Oc1cc2c(cc1Nc1ncc(Cl)c(Nc3ccccc3S(=O)(=O)C(C)C)n1)OC[C@@H]1CN(C3CCN(C)CC3)CCN21` [Compound C3S], the pIC50 at FAK kinase [3] (Table 3, read-out: FAK(method A and B) (IC50)) is greater than 8.30.
In turn, `CNC(=O)c1ccccc1Nc1cc(Nc2cc3c(cc2OC)N2CCN(C4CCOCC4)C[C@H]2CO3)ncc1C(F)(F)F` [Compound D1S] gave a pIC50 at FAK kinase [3] greater than 9.30. In series [1], the area under the curve AUC(0-t) at 24 h was 11000 ng·h/mL, the Cmax amounted to 2320 ng/mL, the Tmax was found to be 1.67 h and the half-life was 2.63 h.
As for `CNC(=O)c1ccccc1Nc1cc(Nc2cc3c(cc2OC)N2CCN(C4COC4)C[C@H]2CO3)ncc1C(F)(F)F` [Compound D3S], the pIC50 on FAK kinase [3] (setting [4]) was greater than 9.00.
Still for that read-out and setting: to `CCOc1cc2c(cc1Nc1cc(Nc3ccccc3C(=O)NC)c(C(F)(F)F)cn1)OC[C@@H]1CN(C3CCN(C)CC3)CCN21` [Compound D5S] belongs greater than 9.00.
Take `CNC(=O)c1ccccc1Nc1cc(Nc2cc3c(cc2OC(C)C)N2CCN(C4CCN(C)CC4)C[C@H]2CO3)ncc1C(F)(F)F` [Compound D6S]: the pIC50 against FAK kinase [3] is greater than 8.52. In addition, in series [1], the AUC(0-t) at 24 h was 675 ng·h/mL, the concentration peaked (Cmax) at 52.3 ng/mL, the Tmax came to 6.67 h and the half-life was 5.74 h.
Regarding `COc1cc2c(cc1Nc1ncc(Cl)c(Nc3cccnc3N3CCCC3=O)n1)OC[C@H]1CNCCN21` [Compound E1R], the pIC50 against TNK1 kinase is greater than 9.30.
`COc1cc2c(cc1Nc1ncc(Cl)c(Nc3cccnc3N3CCCC3=O)n1)OC[C@H]1CN(C)CCN21` [Compound E2R]: at TNK1 kinase, the pIC50 was greater than 9.30. Moreover, in series [1], the AUC(0-t) at 24 h was found to be 332 ng·h/mL, the Cmax turned out to be 74.4 ng/mL, the Tmax came to 1 h and the half-life is 2.07 h.
Turning to `COc1cc2c(cc1Nc1ncc(Cl)c(Nc3cccnc3N3CCCC3=O)n1)OC[C@H]1CN(C3CCN(C)CC3)CCN21` [Compound E3R], the negative logarithm of the IC50 (pIC50) at TNK1 kinase (Table 5, ATP 45 µM, read-out: TNK1 (IC50)) was greater than 9.30.
For the molecule `COc1cc2c(cc1Nc1ncc(Cl)c(Nc3cccnc3N3CCCC3=O)n1)OC[C@H]1CN(C3CCOCC3)CCN21` [Compound E4R], the pIC50 on TNK1 kinase is greater than 9.30. In series [1], the AUC(0-t) at 24 h was found to be 83.9 ng·h/mL, the Cmax is 69 ng/mL, the Tmax is 0.5 h and the half-life is 0.99 h.
Taken in the same sequence, the figures for `COc1cc2c(cc1Nc1ncc(Cl)c(Nc3cccnc3N3CCCC3=O)n1)OC[C@H]1CN(C(C)=O)CCN21` [Compound E5R] were greater than 9.30, 1560 ng·h/mL, 500 ng/mL, 1 h and 1.38 h.
On TNK1 kinase, `CCC(=O)N1CCN2c3cc(OC)c(Nc4ncc(Cl)c(Nc5cccnc5N5CCCC5=O)n4)cc3OC[C@H]2C1` [Compound E6R] had a pIC50 greater than 9.00. Moreover, in series [1], the AUC(0-t) at 24 h stood at 581 ng·h/mL, the Cmax came out at 352 ng/mL, the Tmax turned out to be 0.5 h and the half-life was 1.05 h.
Taken in the same sequence, the figures for `COc1cc2c(cc1Nc1ncc(Cl)c(Nc3cccnc3N3CCCC3=O)n1)OC[C@H]1CN(C(=O)C3CC3)CCN21` [Compound E7R] were greater than 8.70, 473 ng·h/mL, 292 ng/mL, 0.5 h and 1.08 h.
Taken in the same sequence, the figures for `COc1cc2c(cc1Nc1ncc(Cl)c(Nc3cccnc3N3CCCC3=O)n1)OC[C@H]1CN(C3CN(C)C3)CCN21` [Compound E8R] were greater than 8.70, 3170 ng·h/mL, 411 ng/mL, 2 h and 3.37 h.
Taken in the same sequence, the figures for `CCN1CCC(N2CCN3c4cc(OC)c(Nc5ncc(Cl)c(Nc6cccnc6N6CCCC6=O)n5)cc4OC[C@H]3C2)CC1` [Compound E9R] were greater than 9.00, 1200 ng·h/mL, 71.6 ng/mL, 9.33 h and 14.5 h.
At TNK1 kinase, `COc1cc2c(cc1Nc1ncc(Cl)c(Nc3cccnc3N3CCCC3=O)n1)OC[C@H]1CN(C3CCN(C4CC4)CC3)CCN21` [Compound E10R] gave a pIC50 greater than 9.30. Besides, in series [1], the AUC(0-t) at 24 h amounted to 2000 ng·h/mL, the Cmax was determined as 133 ng/mL, the Tmax turned out to be 3.67 h and the half-life is 9.69 h.
Taken in the same sequence, the figures for `COc1cc2c(cc1Nc1ncc(Cl)c(Nc3cccnc3N3CCCC3=O)n1)OC[C@H]1CN(C3CCN(C(C)=O)CC3)CCN21` [Compound E11R] were greater than 9.00, 8110 ng·h/mL, 1090 ng/mL, 1.33 h and 4.36 h.
